# Experimental data: patent publication US20110306597A1, “Nicotinamide Derivatives” (priority 2008, published 2011)
# Target: human recombinant H-PGDS (Homo sapiens, UniProt O60760)
# Assay: Fluorescence Intensity h-PGDS TBA Enzyme Assay
# Type: biochemical
# Settings: 1:175,000 human recombinant H-PGDS, highest inhibitor concentration typically 1 μM
# Experimental: Fluorescence Intensity h-PGDSTBA Enzyme Assay
# Prostaglandin D Synthase (PGDS) converts the substrate prostaglandin H2 (PGH2) to prostaglandin D2. The depletion of PGH2 was measured via an Fe(II) reduction of the remaining PGH2 to malondialdehyde (MDA) and 12-HHT. The enzyme assay is based on the quantitative formation of a fluorescent complex from the non-fluorescent compounds MDA and 2-thiobarbituric acid (TBA), substantially as described in U.S. patent application publication US-2004/152148 by Lombardt.
# The enzyme assay (31 μls) contained 100 mM Tris base pH 8.0, 100 μM MgCl2, 0.1 mg/ml IgG Rabbit serum, 5.0 μM PGH2 (Cayman; ethanol solution, #17020), 2.5 mM L-Glutathione (Sigma; reduced form #G4251), 1:175,000 human recombinant H-PGDS (from 1 mg/ml), 0.5% DMSO and inhibitor (varying concentration). Three μls of diluted inhibitor (dissolved in DMSO) was plated into a 384-well assay plate followed by a 25 μl addition of an enzyme solution containing h-PGDS, Tris, MgCl2, IgG and L-Glutathione. After preincubation of inhibitor and enzyme solution for 10 minutes at room temperature, the reaction was initiated with a 3 μl addition of substrate solution in 10 mM HCl. The reaction was terminated after 42 second by the addition (3 μl) of stop buffer containing FeCl2 and citric acid. After addition of 45.5 μls of TBA plates were heated for one hour in a 70 C oven. Plates were cooled at room temperature overnight and read on a plate reader the next day with excitation @ 530 nm and emission @ 565 nm.
# IC50's of inhibitors were calculated with a 4-parameter fit using 11 inhibitor concentrations in duplicate with 3-fold serial dilutions. Controls on each plate included no inhibitor (zero % effect) and an inhibitor 10-fold in excess of its' IC50 (100% effect). The highest inhibitor concentration tested was typically 1 μM.
# human recombinant H-PGDS, sequence (O60760 whole entry): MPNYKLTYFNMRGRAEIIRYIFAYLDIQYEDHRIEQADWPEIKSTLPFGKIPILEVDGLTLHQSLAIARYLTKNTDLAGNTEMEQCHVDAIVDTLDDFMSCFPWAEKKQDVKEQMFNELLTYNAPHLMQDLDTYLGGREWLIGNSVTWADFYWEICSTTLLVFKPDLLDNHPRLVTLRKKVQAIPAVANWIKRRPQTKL
row,Structure (SMILES),IC50
1,"COc1ccc(CCc2nnc(CNC(=O)c3ccc(-c4cccc(F)c4)nc3)[nH]2)cc1 [Example 31, 6-(3-Fluorophenyl)-N-({5-[2-(4-methoxyphenyl)ethyl]-4H-1,2,4-triazol-3-yl}methyl)nicotinamide]",35 nM
2,"O=C(NCCN1CCC(O)CC1)c1ccc(-c2cccc(F)c2)nc1 [Example 32, 6-(3-Fluorophenyl)-N-[2-(4-hydroxypiperidin-1-yl)ethyl]nicotinamide]",31.1 nM
3,"COc1cccc(CNC(=O)c2ccc(-c3cccc(F)c3)nc2)c1OC [Example 33, N-(2,3-Dimethoxybenzyl)-6-(3-fluorophenyl)nicotinamide]",2.72 nM
4,"CCOCC(O)CNC(=O)c1ccc(-c2cccc(F)c2)nc1 (stereo not drawn) [Example 34, N-(3-Ethoxy-2-hydroxypropyl)-6-(3-fluorophenyl)nicotinamide]",73.4 nM
5,"O=C(NCCc1nc(CN2CCOCC2)no1)c1ccc(-c2cccc(F)c2)nc1 [Example 35, 6-(3-Fluorophenyl)-N-{2-[3-(morpholin-4-ylmethyl)-1,2,4-oxadiazol-5-yl]ethyl}nicotinamide]",50.8 nM
6,"COCc1cc(CNC(=O)c2ccc(-c3cccc(F)c3)nc2)n[nH]1 [Example 36, 6-(3-Fluorophenyl)-N-{[5-(methoxymethyl)-1H-pyrazol-3-yl]methyl}nicotinamide]",27.7 nM
7,"CC(C)OCCCNC(=O)c1ccc(-c2cccc(F)c2)nc1 [Example 37, 6-(3-Fluorophenyl)-N-(3-isopropoxypropyl) nicotinamide]",15.8 nM
8,"CCOCCCNC(=O)c1ccc(-c2cccc(F)c2)nc1 [Example 38, N-(3-Ethoxypropyl)-6-(3-fluorophenyl)nicotinamide]",14.8 nM
9,"O=C(NCCCN1CCOCC1)c1ccc(-c2cccc(F)c2)nc1 [Example 39, 6-(3-Fluorophenyl)-N-(3-morpholin-4-ylpropyl)nicotinamide]",42.8 nM
10,"O=C(NCC1CCCOC1)c1ccc(-c2cccc(F)c2)nc1 (stereo not drawn) [Example 40, 6-(3-Fluorophenyl)-N-(tetrahydro-2H-pyran-3-ylmethyl)nicotinamide]",7.14 nM
11,"O=C(NCCN1CCCOC1=O)c1ccc(-c2cccc(F)c2)nc1 [Example 41, 6-(3-Fluorophenyl)-N-[2-(2-oxo-1,3-oxazinan-3-yl)ethyl]nicotinamide]",18.2 nM
12,"O=C(NCCC1CCC(=O)N1CCN1CCOCC1)c1ccc(-c2cccc(F)c2)nc1 (stereo not drawn) [Example 42, 6-(3-Fluorophenyl)-N-{2-[1-(2-morpholin-4-ylethyl)-5-oxopyrrolidin-2-yl]ethyl}nicotinamide]",12.6 nM
13,"COc1ccc(OCC(O)CNC(=O)c2ccc(-c3cccc(F)c3)nc2)cc1 (stereo not drawn) [Example 43, 6-(3-Fluorophenyl)-N-[2-hydroxy-3-(4-methoxyphenoxy)propyl] nicotinamide]",6.64 nM
14,"COC(=O)CCCNC(=O)c1ccc(-c2cccc(F)c2)nc1 [Example 44, Methyl 4-({[6-(3-fluorophenyl)pyridin-3-yl]carbonyl}amino)butanoate]",13.2 nM
15,"CCn1cc(-c2nnc(CCNC(=O)c3ccc(-c4cccc(F)c4)nc3)o2)cn1 [Example 45, N-{2-[5-(1-Ethyl-1H-pyrazol-4-yl)-1,3,4-oxadiazol-2-yl]ethyl}-6-(3-fluorophenyl)nicotinamide]",30.7 nM
16,"COCCN1C(=O)CCC1CCNC(=O)c1ccc(-c2cccc(F)c2)nc1 (stereo not drawn) [Example 46, 6-(3-Fluorophenyl)-N-{2-[1-(2-methoxyethyl)-5-oxopyrrolidin-2-yl]ethyl}nicotinamide]",17.3 nM
17,"O=C(NCCN1CCCC(O)C1)c1ccc(-c2cccc(F)c2)nc1 (stereo not drawn) [Example 47, 6-(3-Fluorophenyl)-N-[2-(3-hydroxypiperidin-1-yl)ethyl]nicotinamide]",21.7 nM
18,"COc1cccn(CCNC(=O)c2ccc(-c3cccc(F)c3)nc2)c1=O [Example 48, 6-(3-Fluorophenyl)-N-[2-(3-methoxy-2-oxopyridin-1(2H)-yl)ethyl]nicotinamide]",10.7 nM
19,"COc1cccc(OCC(O)CNC(=O)c2ccc(-c3cccc(F)c3)nc2)c1 (stereo not drawn) [Example 49, 6-(3-Fluorophenyl)-N-[2-hydroxy-3-(3-methoxyphenoxy)propyl] nicotinamide]",10.8 nM
20,"COc1ccc(OC)c(C(O)CNC(=O)c2ccc(-c3cccc(F)c3)nc2)c1 (stereo not drawn) [Example 50, N-[2-(2,5-Dimethoxyphenyl)-2-hydroxyethyl]-6-(3-fluorophenyl)nicotinamide]",8.14 nM

row,Structure (SMILES),IC50
1,"O=C(NCC1CC2(CCN(Cc3cc[nH]n3)CC2)CO1)c1ccc(-c2cccc(F)c2)nc1 (stereo not drawn) [Example 51, 6-(3-Fluorophenyl)-N-{[8-(1H-pyrazol-3-ylmethyl)-2-oxa-8-azaspiro[4.5]dec-3-yl]methyl}nicotinamide]",25.4 nM
2,"CN1CCC2(CC1)COC(CNC(=O)c1ccc(-c3cccc(F)c3)nc1)C2 (stereo not drawn) [Example 52, 6-(3-Fluorophenyl)-N-[(8-methyl-2-oxa-8-azaspiro[4.5]dec-3-yl)methyl]nicotinamide]",77.6 nM
3,"O=C(NCC1CC2(CCN(Cc3ccccn3)CC2)CO1)c1ccc(-c2cccc(F)c2)nc1 (stereo not drawn) [Example 53, 6-(3-Fluorophenyl)-N-{[8-(pyridin-2-ylmethyl)-2-oxa-8-azaspiro[4.5]dec-3-yl]methyl}nicotinamide]",19.2 nM
4,"O=C(NCC1CC2(CCN(c3cnccn3)CC2)CO1)c1ccc(-c2cccc(F)c2)nc1 (stereo not drawn) [Example 54, 6-(3-Fluorophenyl)-N-[(8-pyrazin-2-yl-2-oxa-8-azaspiro[4.5]dec-3-yl)methyl]nicotinamide]",13.5 nM
5,"COc1ccc(C(Cc2cc(C)no2)NC(=O)c2ccc(-c3cccc(F)c3)nc2)cc1OC (stereo not drawn) [Example 55, N-[1-(3,4-Dimethoxyphenyl)-2-(3-methylisoxazol-5-yl)ethyl]-6-(3-fluorophenyl)nicotinamide]",11.1 nM
6,"Cc1cnc(CN2C(=O)CCC2CCNC(=O)c2ccc(-c3cccc(F)c3)nc2)cn1 (stereo not drawn) [Example 56, 6-(3-Fluorophenyl)-N-(2-{1-[(5-methylpyrazin-2-yl)methyl]-5-oxopyrrolidin-2-yl}ethyl)nicotinamide]",19.8 nM
7,"O=C(NCc1nnc(Cc2ccccc2)o1)c1ccc(-c2cccc(F)c2)nc1 [Example 57, N-[(5-Benzyl-1,3,4-oxadiazol-2-yl)methyl]-6-(3-fluorophenyl)nicotinamide]",32.8 nM
8,"O=C(NCCC1CCC(=O)N1Cc1ccccc1)c1ccc(-c2cccc(F)c2)nc1 (stereo not drawn) [Example 58, N-[2-(1-Benzyl-5-oxopyrrolidin-2-yl)ethyl]-6-(3-fluorophenyl)nicotinamide]",9.46 nM
9,"O=C(NC(c1ccc(F)c(F)c1)c1nn[nH]n1)c1ccc(-c2cccc(F)c2)nc1 (stereo not drawn) [Example 59, N-[(3,4-Difluorophenyl)(2H-tetrazol-5-yl)methyl]-6-(3-fluorophenyl)nicotinamide]",10.6 nM
10,"CCC(NC(=O)c1ccc(-c2cccc(F)c2)nc1)c1nn[nH]n1 (stereo not drawn) [Example 60, 6-(3-Fluorophenyl)-N-[1-(2H-tetrazol-5-yl)propyl]nicotinamide]",38.9 nM
11,"CCc1csc(CNC(=O)c2ccc(-c3cccc(F)c3)nc2)n1 [Example 61, N-[(4-Ethyl-1,3-thiazol-2-yl)methyl]-6-(3-fluorophenyl)nicotinamide]",5.48 nM
12,"O=C(NC(CCc1ccccc1)c1nn[nH]n1)c1ccc(-c2cccc(F)c2)nc1 (stereo not drawn) [Example 62, 6-(3-Fluorophenyl)-N-[3-phenyl-1-(2H-tetrazol-5-yl)propyl]nicotinamide]",17.2 nM
13,"O=C(NC1CCCOC1)c1ccc(-c2cccc(F)c2)nc1 (stereo not drawn) [Example 63, 6-(3-Fluorophenyl)-N-(tetrahydro-2H-pyran-3-yl)nicotinamide]",5.32 nM
14,"O=C(NCCNc1ncccn1)c1ccc(-c2cccc(F)c2)nc1 [Example 64, 6-(3-Fluorophenyl)-N-[2-(pyrimidin-2-ylamino)ethyl]nicotinamide]",12.9 nM
15,"CC[C@H](CC#N)NC(=O)c1ccc(-c2cccc(F)c2)nc1 [Example 65, N-[(1R)-1-(Cyanomethyl)propyl]-6-(3-fluorophenyl)nicotinamide]",60.3 nM
16,"COC(=O)CC[C@@H](NC(=O)c1ccc(-c2cccc(F)c2)nc1)C(=O)OC [Example 66, Dimethyl N-{[6-(3-fluorophenyl)pyridin-3-yl]carbonyl}-D-glutamate]",95.2 nM
17,"O=C(NCC1CN(Cc2ccccn2)C(=O)CO1)c1ccc(-c2cccc(F)c2)nc1 (stereo not drawn) [Example 67, 6-(3-Fluorophenyl)-N-{[5-oxo-4-(pyridin-2-ylmethyl)morpholin-2-yl]methyl}nicotinamide]",31.9 nM
18,"CN(C)[C@@H]1COC[C@H]1NC(=O)c1ccc(-c2cccc(F)c2)nc1 [Example 68, N-[(3S,4S)-4-(Dimethylamino)tetrahydro-furan-3-yl]-6-(3-fluorophenyl)nicotinamide]",75.8 nM
19,"Cc1nc(CNC(=O)c2ccc(-c3cccc(F)c3)nc2)cs1 [Example 69, 6-(3-Fluorophenyl)-N-[(2-methyl-1,3-thiazol-4-yl)methyl]nicotinamide]",23.9 nM
